# According to patent publication US9242984B2, “Pyrazolyl derivatives as Syk inhibitors” (Merck Sharp & Dohme Corp., priority 2012, dated 2016):
# Molecular target: T1, recombinant human Syk (GST-hSyk fusion protein) (Homo sapiens, UniProt P43405)
# T1 construct: purchased Carna Biosciences 08-176
# Assay: Homogeneous Time-Resolved Fluorescence (HTRF) assay for the recombinant human Syk enzyme
# Type: biochemical
# Settings: IC50 class; 10-dose titration, 25 μM ATP; read-out: rhSYK Activity
# Procedure, shortened: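 GST-hSyk (5 pM) preincubated 10 min with compound (0.1% DMSO) in 15 mM Tris-HCl pH 7.5, 2 mM DTT; reaction started with 250 nM biotinylated peptide, 5 mM Mg, 25 μM ATP, 45 min, room temperature. EDTA quench, Eu-anti-phosphotyrosine/SA-APC HTRF read after 30 min; IC50 from 10-dose titration (10 μM–0.508 nM), four-parameter fit.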
row,IC50 [µM],SMILES
1,≤ 0.1,"Cc1cc(Nc2nccc(C(F)(F)F)n2)cc(-c2cnn(C3CCOC3=O)c2)c1 (centres unmarked) [Example 3.17, 3-[4-(3-methyl-5-{[4-(trifluoromethyl)pyrimidin-2-yl]amino}-phenyl)-1H-pyrazol-1-yl]dihydrofuran-2(3h)-one]"
2,≤ 0.1,"Cc1cc(Nc2nccc(C(F)F)n2)cc(-c2cnn(CCC(N)=O)c2)c1 [Example 2.9, 3-[4-(3-{[4-(difluoromethyl)pyrimidin-2-yl]amino}-5-methylphenyl)-1H-pyrazol-1-yl]propanamide]"
3,≤ 0.1,"Cc1cc(Nc2nccc(C(F)(F)F)n2)cc(-c2cnn(C3CCC(C(=O)O)c4ccccc43)c2)c1 (centres unmarked) [Example 3.51, 4-[4-(3-methyl-5-{[4-(trifluoromethyl)pyrimidin-2-yl]amino}phenyl)-1H-pyrazol-1-yl]-1,2,3,4-tetrahydronaphthalene-1-carboxylic acid]"
4,≤ 0.1,"Cc1cc(Nc2nccc(C(F)(F)F)n2)cc(-c2cnn(CC(C)(O)C(=O)O)c2)c1 (racemic) [Example 5.6, 2-hydroxy-2-methyl-3-[4-(3-methyl-5-{[4-(trifluoro-methyl)pyrimidin-2-yl]amino}-phenyl)-1H-pyrazol-1-yl]propanoic acid]"
5,≤ 0.1,Cc1cc(Nc2nccc(C(F)(F)F)n2)cc(-c2cnn(CCS(N)(=O)=O)c2)c1 [9.2]
6,≤ 0.1,"Cc1cc(Nc2nccc(C)n2)cc(-c2cnn(CC3OC(=O)NC3C(C)C)c2)c1 (single isomer, unassigned) [Example 23.15, 4-(1-methylethyl)-5-[(4-{3-methyl-5-[(4-methylpyrimidin-2-yl)amino]phenyl}-1H-pyrazol-1-yl)methyl]-1,3-oxazolidin-2-one]"
7,≤ 0.1,"Cc1cc(Nc2nccc(C(F)F)n2)cc(-c2cnn(CC(O)CN3CCCC3=O)c2)c1 (centres unmarked) [Example 5.33, 1-{3-[4-(3-{[4-(difluoromethyl)pyrimidin-2-yl]amino}-5-methylphenyl)-1H-pyrazol-1-yl]-2-hydroxypropyl}pyrrolidin-2-one]"
8,≤ 0.1,"Cc1cc(Nc2nccc(C(F)(F)F)n2)cc(-c2cnn(CC(O)c3ccc(C(N)=O)cc3)c2)c1 (centres unmarked) [Example 8.12, 4-{1-hydroxy-2-[4-(3-methyl-5-{[4-(trifluoromethyl)-pyrimidin-2-yl]amino}-phenyl)-1H-pyrazol-1-yl]ethyl}benzamide]"
9,≤ 0.1,"Cc1cc(Nc2nccc(C(F)(F)F)n2)cc(-c2cnn(C(C)C(=O)O)c2)c1 (centres unmarked) [Example 3.35, 2-[4-(3-methyl-5-{[4-(trifluoromethyl)pyrimidin-2-yl]amino}-phenyl)-1H-pyrazol-1-yl]propanoic acid]"
10,≤ 0.1,"Cc1cc(Nc2nccc([C@@H](C)F)n2)cc(-c2cnn(CC(C)(O)CO)c2)c1 (single isomer, unassigned) [Example 25.6]"
11,≤ 0.1,"Cc1cc(Nc2nccc(C)n2)cc(-c2cnn(CC3CNC(=O)O3)c2)c1 (centres unmarked) [Example 2.31, 5-[(4-{3-methyl-5-[(4-methylpyrimidin-2-yl)amino]phenyl}-1H-pyrazol-1-yl)methyl]-1,3-oxazolidin-2-one]"
12,≤ 0.1,"Cc1cc(Nc2nccc(C3CC3)n2)cc(-c2cnn(C[C@H](O)C(=O)O)c2)c1 [Example 11.5, (2S)-3-(4-{3-[(4-cyclopropylpyrimidin-2-yl)amino]-5-methyl-phenyl}-1H-pyrazol-1-yl)-2-hydroxy-propanoic acid]"
13,≤ 0.1,"COC(=O)C(C)(O)Cn1cc(-c2cc(C)cc(Nc3nccc(C(F)(F)F)n3)c2)cn1 (racemic) [Example 5.4, methyl 2-hydroxy-2-methyl-3-[4-(3-methyl-5-{[4-(trifluoro-methyl)pyrimidin-2-yl]amino}phenyl)-1H-pyrazol-1-yl]propanoate]"

# The next lines start with the compound.
row,SMILES,IC50 [µM]
1,"Cc1cc(Nc2nccc(C(F)F)n2)cc(-c2cnn(CCNC(=O)OCCF)c2)c1 [Example 27.18, 2-fluoroethyl {2-[4-(3-{[4-(difluoromethyl)pyrimidin-2-yl]amino}-5-methylphenyl)-1H-pyrazol-1-yl]ethyl}carbamate]",≤ 0.1
2,"Cc1cc(Nc2nccc(C(F)(F)F)n2)cc(-c2cnn(C3CCCC(O)C3O)c2)c1 (centres unmarked) [Example 10.2, 3-[4-(3-methyl-5-{[4-(trifluorometh-yl)pyrimidin-2-yl]amino}phen-yl)-1H-pyrazol-1-yl]cyclohexane-1,2-diol]",≤ 0.1
3,"Cc1cc(Nc2nccc(C)n2)cc(-c2cnn(CC3(C)CNC(=O)O3)c2)c1 (centres unmarked) [Example 3.122, 5-methyl-5-[(4-{3-methyl-5-[(4-methylpyrimidin-2-yl)amino]phenyl}-1H-pyrazol-1-yl)methyl]-1,3-oxazolidin-2-one]",≤ 0.1
4,"Cc1cc(Nc2nccc(C(F)F)n2)cc(-c2cnn(CC3CNC(=O)O3)c2)c1 (centres unmarked) [Example 2.63, 5-{[4-(3-{[4-(difluoromethyl)pyrimidin-2-yl]amino}-5-methylphenyl)-1H-pyrazol-1-yl]methyl}-1,3-oxazolidin-2-one]",≤ 0.1
5,"Cc1cc(Nc2ncc(Cl)c(C)n2)cc(-c2cnn(C[C@@H](O)C(=O)O)c2)c1 [Example 11.7, (2R)-3-(4-{3-[(5-chloro-4-methyl-pyrimidin-2-yl)-amino]-5-methyl-phenyl}-1H-pyrazol-1-yl)-2-hydroxy-propanoic acid]",≤ 0.1
6,"Cc1cc(Nc2nccc(C3CC3)n2)cc(-n2cc(CCC(=O)O)cn2)c1 [Example 19.3, 3-(1-{3-[(4-cyclopropylpyrimidin-2-yl)amino]-5-methylphenyl}-1H-pyrazol-4-yl)propanoic acid]",≤ 0.1
7,"Cc1cc(Nc2nccc(C(F)(F)F)n2)cc(-c2cnn(C[C@@H](O)C(N)=O)c2)c1 [Example 8.13, (2r)-2-hydroxy-3-[4-(3-methyl-5-{[4-(trifluorometh-yl)pyrimidin-2-yl]amino}phenyl)-1H-pyrazol-1-yl]propanamide]",≤ 0.1
8,"Cc1cc(Nc2nccc(C(F)(F)F)n2)cc(-c2cnn(C3CCC(C(N)=O)C(C)(C)C3)c2)c1 (centres unmarked) [Example 8.19, 2,2-dimethyl-4-[4-(3-methyl-5-{[4-(trifluorometh-yl)pyrimidin-2-yl]amino}phenyl)-1H-pyrazol-1-yl]-cyclohexanecarbox-amide]",≤ 0.1
9,"Cc1cc(Nc2nccc(C(F)(F)F)n2)cc(-c2cnn(CC3CNC(=O)O3)c2)c1 (centres unmarked) [Example 3.33, 5-{[4-(3-methyl-5-{[4-(trifluoromethyl)pyrimidin-2-yl]amino}-phenyl)-1H-pyrazol-1-yl]methyl}-1,3-oxazolidin-2-one]",≤ 0.1
10,"Cc1cc(Nc2nccc([C@H](C)F)n2)cc(-c2cnn(CC(C)(O)CO)c2)c1 (single isomer, unassigned) [Example 25.7]",≤ 0.1
11,"Cc1cc(Nc2nccc(C(F)F)n2)cc(-c2cnn(CC(O)CN)c2)c1 (centres unmarked) [Example 5.37, 1-amino-3-[4-(3-{[4-(difluoromethyl)pyrimidin-2-yl]amino}-5-methylphenyl)-1H-pyrazol-1-yl]propan-2-ol]",≤ 0.1
12,"CCC(O)(CC)Cn1cc(-c2cc(C)cc(Nc3nccc(C(F)F)n3)c2)cn1 [Example 5.32, 3-{[4-(3-{[4-(difluoromethyl)pyrimidin-2-yl]amino}-5-methylphenyl)-1H-pyrazol-1-yl]methyl}pentan-3-ol]",≤ 0.1
13,"Cc1cc(Nc2nccc(C(F)(F)F)n2)cc(-c2cnn(C3CCC(C(N)=O)C(C)(C)C3)c2)c1 (centres unmarked) [Example 8.7, 2,2-dimethyl-4-[4-(3-methyl-5-{[4-(trifluoromethyl)-pyrimidin-2-yl]amino}-phenyl)-1H-pyrazol-1-yl]cyclohexane-carboxamide]",≤ 0.1
